This note sets out measurements from article PMC5345165, “Cardiotoxicity evaluation using human embryonic stem cells and induced pluripotent stem cell-derived cardiomyocytes” (Stem Cell Research & Therapy, 2017).

Data set [1] concerns hESC-CMs. Kind of data set: xCELLigence RTCA Cardio impedance assay on hESC-CMs. The format is cell-based, human. Particulars: for CI (concentration at which cell index is decreased, ↓): arrow ↓ = CI decreased, NO = no effect. As to the method:
(§1) Human ESC-CMs were kindly provided by the Institute of Biophysics of the Chinese Academy of Sciences, Beijing, China. Human iPSC-CMs, provided by a domestic manufacturer (Cellapy: CA2001106, Beijing, China), were also examined. Cells were incubated in maintaining medium at 37 °C, 5% CO2, with culture medium refreshed every 2 days. Cells were dissociated and replated into 96-well E-plates (ACEA Biosciences, Hangzhou, China), which was pre-coated with 0.1% gelatin. Cells were plated at a density of 50,000 cells per well.
(§2) Spontaneous cardiomyocytes contraction and cell health were monitored in real-time by impedance using xCELLigence real-time cellular analyzer (RTCA) Cardio system (ACEA Biosciences, Hangzhou, China). Impedance signals were monitored and recorded with 20 s recording per sweep.
(§3) Drug dilutions were equilibrated in a 37 °C, 5% CO2 incubator for 30 min before being applied to E-plates.
(§4) For data analysis, cellular impedance index, beat rate, and amplitude were measured off-line using RTCA Cardio software 1.0 and normalized for each well to the baseline (pre-dose) values measured prior to the compounds treatment. Statistics were performed using SPSS 21.0 (IBM Corp., Armonk, NY, USA). Data were presented as mean ± SEM. Statistical significance of differences was estimated by one-way ANOVA or Student’s t test. p < 0.05 was considered significant.

Data set [2] relates to hiPSC-CMs. Kind of data set: xCELLigence RTCA Cardio impedance assay on hiPSC-CMs. It counts as cell-based, human. Particulars: for CI (concentration at which cell index is decreased, ↓): arrow ↓ = CI decreased. How it is done:
as §1, §2, §3, §4

Where [3] appears, read: concentration-dependent effect, impedance.
Setting [4] is: hiPSC-CMs, concentration-dependent.
Setting [5] is: hiPSC-CMs, concentration-dependent effect, impedance.

Each structure is given as a SMILES string.

Consider `Cc1cccc(CCN2CCC(C(=O)c3ccc(NS(C)(=O)=O)cc3)CC2)n1` [E-4031], for which the “time at which cells recovered automaticity” value in data set [1] (10 nmol/L) is 24 h. In addition, the “time post administration at which spontaneous beating ceased” value in data set [1] (300 nmol/L) is listed as 0.5 h. Besides, in data set [1] (300 nmol/L, one recording), the “time of temporary recovery of spontaneous beating activity” value stood at 18 h. Besides, the “time post administration at which spontaneous activity ceased” value in data set [1] (10, 30 and 100 nmol/L) is given as 6 h. In addition, the spontaneous beating rate entry in data set [1] (all concentrations (10, 30, 100, 300 nmol/L), upon immediate administration) is reported as “Reduction”; in data set [2] (hiPSC-CMs, 100 nmol/L, 6 h after administration), “markedly reduced”; in data set [2] (hiPSC-CMs, 300 nmol/L, 1 h after administration), “significantly reduced”. The CI amplitude entry in data set [2] (hiPSC-CMs, 30 nmol/L, 18 h culture, tended to recover at 24 h) is listed as “Reduction”. The “time at which spontaneous beating ceased” value in data set [2] (hiPSC-CMs, 100 nmol/L) is recorded as 12 h. For the same compound, the “time post administration at which spontaneous activity was abolished” value in data set [2] (hiPSC-CMs, 300 nmol/L) is listed as 2 h.
With `O=C(CCCN1CCC(O)(c2ccc(Cl)cc2)CC1)c1ccc(F)cc1` [Haloperidol, haloperidol], the beating rate result in data set [1] (0.01 μmol/L, 6 h post administration) is “mild reduction”; in data set [2] (hPSC-CMs, 1 μmol/L, after 0.5 h) it was “significantly reduced”. The “spontaneous beating rate and amplitudes” value in data set [1] (0.1 μmol/L) is listed as “significantly reduced”. Further, the “time at which cellular automaticity ceased” value in data set [1] (1 μmol/L) came to 0.5 h; in data set [2] (hPSC-CMs, 10 μmol/L), 0.5 h. Moreover, the “time post administration at which partial recovery was observed” value in data set [1] (1 μmol/L) worked out at 24 h. Further, the “self-recovery after abolished spontaneous beating” value in data set [1] (10 μmol/L, investigation period) is reported as “no self-recovery”. Also, the “effect on CI and pulse signals” value in data set [1] (concentration-dependent) and in data set [2] (setting [4]) was “reduced” in each case. Besides, the figures for the “IC50/EC50 (IC50)” value in data set [1] (setting [3]) and in data set [2] (setting [5]) were 140 nM and 5170 nM, respectively. Further, the spontaneous beating rate entry in data set [2] (hPSC-CMs, 0.1 μmol/L) is “Mild reduction”. In addition, in data set [2] (hPSC-CMs, 0.1 μmol/L), the “time post administration at which beating rate recovered” value was 18 h. The “time at which self-recovery was observed” value in data set [2] (hPSC-CMs, 10 μmol/L) turned out to be 24 h. Further, the “amplitude compared with controls” value in data set [2] (hPSC-CMs, 10 μmol/L, after self-recovery at 24 h) is reported as “significantly decreased”. For the same compound, the “CI (concentration at which cell index is decreased, ↓)” value in data set [2] (hiPSC-CMs) was 10↓ μmol•L^-1.
As to `CC(C)NCC(O)c1ccc(O)c(O)c1` (stereo not drawn) [Isoprenaline, isoprenaline], the “time after which beating rate recovered” value in data set [1] (0.01 μmol/L) amounted to 12 h. Besides, in data set [1] (0.01 μmol/L, 0.5 h post injection), the spontaneous beating rate result was “increased”. The “time at which automaticity recovered” value in data set [1] (0.1, 1 and 10 μmol/L) was 24 h. The cellular automaticity result in data set [1] (0.1, 1 and 10 μmol/L, 0.5 h post injection) was “significantly increased”. Further, the “CI (concentration at which cell index is decreased, ↓)” value in data set [1] was 0.1↓ μmol•L^-1; in data set [1] (listed as isoprenaline), ≥ 0.1 µmol/L; in data set [2] (hiPSC-CMs), 1↓ μmol•L^-1. Moreover, the figures for the “IC50/EC50 (EC50)” value in data set [1] (setting [3]) and in data set [2] (setting [5]) were 40 nM and 30 nM, respectively. Moreover, the amplitude entry in data set [2] (hPSC-CMs, 0.1, 1 and 10 μmol/L) is reported as “increased”. Besides, the “time at which beating rate recovered” value in data set [2] (hiPSC-CMs, 0.1, 1 and 10 μmol/L) stood at 24 h. Further, the beating rate entry in data set [2] (hiPSC-CMs, 0.1, 1 and 10 μmol/L, after 0.5 h of administration) is “significantly increased”. Also, the “effect on CI” value in data set [2] (setting [4]) is on record as “decrease”.
Take `C=C[C@H]1C[N@@]2CC[C@H]1C[C@@H]2[C@@H](O)c1ccnc2ccc(OC)cc12` [Quinidine, quinidine]: the “time at which spontaneous beating recovered” value in data set [1] (12.5 μmol/L) is listed as 6 h; in data set [1] (50 μmol/L), 24 h. Also, the “self-recovery after abolished cellular automaticity” value in data set [1] (100 μmol/L) is reported as “without observing self-recovery”. In addition, the “effect on CI” value was “significant temporary decrease” in data set [1] (100 μmol/L, when perfusion was initiated) and “reduced” in data set [2] (setting [4]). Further, the “time post administration at which spontaneous beating ceased” value in data set [1] (12.5 and 50 μmol/L) stood at 0.5 h. Moreover, the “CI (concentration at which cell index is decreased, ↓)” value in data set [1] and in data set [2] (hiPSC-CMs) was 100↓ μmol•L^-1 throughout. For the same compound, the “concentration that weakened the pulse signals” value in data set [1] (concentration-dependent) is ≥ 3.13 µmol/L. Besides, the “IC50/EC50 (IC50)” value in data set [1] (setting [3]) was found to be 2180 nM; in data set [2] (setting [5]), 13970 nM. Moreover, the “concentration that weakened the amplitudes of pulse signals” value in data set [2] (hiPSC-CMs) was ≥ 12.5 µmol/L. Further, the “time after which beating rate spontaneously recovered” value in data set [2] (hiPSC-CMs, 3.13 μmol/L) was found to be 1 h. In addition, the beating rate entry in data set [2] (hiPSC-CMs, 3.13 μmol/L, 0.5 h after administration) is “markedly reduced”. Besides, the “time after which amplitude recovered” value in data set [2] (hiPSC-CMs, 12.5 μmol/L) is reported as 2 h. The amplitude entry in data set [2] (hiPSC-CMs, 12.5 μmol/L, 0.5 h and 1 h post administration) is “substantially reduced”. For the same compound, in data set [2] (hiPSC-CMs, 50 and 100 μmol/L), the “self-recovery of automaticity within the observation period” value is listed as “without self-recovery”. For the same compound, the “time after administration at which cellular automaticity ceased” value in data set [2] (hiPSC-CMs, 50 and 100 μmol/L) was determined as 0.5 h.
